{"source": "patent US20110294803A1", "about": "“PHOSPHATIDYLINOSITOL-3-KINASE P110 DELTA-TARGETED DRUGS IN THE TREATMENT OF CNS DISORDERS” (priority 2008, published 2011)", "key": {"[1]": {"tested_on": "Human B-lymphoblast cells (LCLs)", "test": "NRG1-induced lymphocyte (LCL) migration, Transwell assay", "format": "cell-based", "settings": "0.1 uM, 60 min preincubation; LCLs of normal individuals and patients with schizophrenia; NRG-1 200 ng/ml, 4 hours", "method": "The cellular phenotype is migration of lymphocytes to the chemoattractant, Neuregulin (NRG1), a key regulator of brain development. NRG1 induced LCL migration is diminished in patients with schizophrenia.\nHuman B-lymphoblast cells were cultured in RPMI 1640 without L-Glutamine medium (Quality Biological, Inc.) supplemented with 15% fetal bovine serum (FBS), 1% Penicillin-streptomycin, and 2% L-Glutamine in a 5% CO2 incubator at 37° C. Prior to performing migration assay, cells were incubated for 16-18 hours in the same culture, lowering the concentration of FBS to 2%. […] Following incubations, cells were seeded into the top chamber of the HTS […] Transwell®-96 Cell Migration plate (Corning) at 4×10^5 cell/well concentration in a 50 μl volume. NRG-1 serum free RPMI solution with antibiotics and L-Glutamine supplements (NRG-1 200 ng/ml; 160 μl) was added to the bottom chamber and incubated for 4 hours at 37° C. 75 μl of the bottom chamber fraction was collected and combined with 25 μl of cyquant/lysis buffer reagent (according to Invitrogen protocol) for 15 min at RT and in the dark, and then read with a Wallac 1420 VICTOR3 multilabel plate reader under standard fluorescein (485 nm/535 nm, 1.0 s) protocol."}, "[2]": {"tested_on": "COMT*dysbindin double knockout mice", "test": "Amphetamine-induced stereotypy in a genetic mouse model of schizophrenia", "format": "in vivo", "settings": "IC87114 0.1 mg/kg i.p. pretreatment, D-amphetamine 1.5 mg/kg i.p.", "description": "Subjects. All procedures were approved by the NIMH Animal Care and Use Committee and followed the NIH Guidelines “Using Animals in Intramural Research.” To derive the double knockout mice, the lines of COMT knockout mice and dysbindin knockout mice previously described were used. COMT*dysbindin double knockout mice (COMT−/− dys−/−) were littermates and bred by double heterozygote mating (dCOMT+/−dys+/− with cCOMT+/−dys+/−). Mice were identified by PCR analysis of tail DNA. Mice were group-housed (2-4/cage) in a climate-controlled animal facility (22±2° C.) and maintained on a 12-hr light/dark cycle, with free access to food and water. Testing was conducted in male mice, 7 months old, during the light phase. Experimenters were blind to the genotype during behavioral testing. Mice were handled by the experimenter on alternate days during the week preceding the tests. At least one hour before any test manipulation, mice were habituated in a room adjacent to the testing room.\nStereotypy behavior with IC87114 and Amphetamine Treatment. […] Stereotypy was scored from videotapes by an observer blind to the treatments and genotype conditions of each mouse. […]\nStatistical analysis. Results were expressed as mean±standard error of the mean (S.E.M.) throughout. […]"}, "C57BL/6J mice [3]": {"tested_on": "C57BL/6J mice", "test": "Baseline locomotor activity in open field", "format": "in vivo, mouse", "settings": "IC87114 0.1 mg/kg i.p., male C57BL/6J mice, no amphetamine", "method": "(§1) Subjects. C57BL/6J mice were purchased from The Jackson Laboratory at 8 weeks old. All mice were group-housed (4/cage) in a climate-controlled animal facility (22±2° C.) and maintained on a 12-hr light/dark cycle, with free access to food and water. Testing was conducted in male mice, at ages 2-3 months, during the light phase of the circadian cycle. Mice were handled by the experimenter on alternate days during the week preceding the tests. At least one hour before any test manipulation, mice were habituated in a room adjacent to the testing room.\nMice were tested on day 1 in an experimental apparatus consisting of four Plexiglas Digiscan automated open fields (Accuscan; 42×42×30 cm dimensions). One red light (5±2 lux) was placed overhead, evenly illuminating each open field. Each apparatus contained photobeam sensors to measure the exploratory and locomotor activity of the mice. During the first 10-minute session, mice were placed in the empty open field and allowed to explore the arena. […] They were then place back in the same open field for an additional 75 minutes. All sessions were videotaped. […] “Vehicle-treated” mice were injected with the same volume of 0.25% DMSO in saline physiological saline.\nStatistical analysis. Results were expressed as mean±standard error of the mean (S.E.M.) throughout. Student T-test, Two- or Three-Way analysis of variance (ANOVA) was used. […]"}, "[4]": {"test": "Passive blood-brain barrier permeability analysis by partitioning (Analiza)", "format": "physicochemical", "method": "For compounds to be clinically useful to treat CNS disorders, they should penetrate the blood-brain barrier (BBB). […] The degree of BBB penetration is measured as the ratio of the steady-state concentrations of the drug in the brain and in the blood, expressed as log(Cbrain/Cblood) or log BB. Compounds with logBB>0.3 (i.e. Cbrain/Cblood>2.0) cross the BBB readily. From these studies, IC87114 represents one of these compounds.\nBBB analysis was performed using Analiza assays: Based upon a method described previously, a combination of two descriptors representing the lipophilicity (as measured by octanol-buffer partitioning, logD7.4) and relative hydrophobicity (as measured by aqueous two-phase partitioning (ATPPS), N(CH2)) of organic compounds was used to determine if that compound will permeate the blood-brain barrier.\nSample Preparation: One sample was received as 10 mM stock solutions in Dimethyl sulfoxide (DMSO) frozen on dry ice in a microtube. […]\nPartitioning Experiments: Partitioning in an aqueous dextran-polyethylene glycol (Dex-PEG) two-phase system containing 0.15M NaCl in 0.01M sodium phosphate buffer at pH 7.4 was performed with an Automated Signature Workstation (Analiza, Inc. Cleveland, Ohio). […] Relative Hydrophobicity (N(CH2)) is then calculated from this partition coefficient. […] Relative Hydrophobicity (N(CH2) is then calculated from this partition coefficient. […]"}, "C57BL/6J mice [5]": {"tested_on": "C57BL/6J mice", "test": "Amphetamine-induced locomotor activity in open field, normal mice", "format": "in vivo, mouse", "settings": "IC87114 0.1 mg/kg i.p. pretreatment; D-amphetamine 0.75 or 1.5 mg/kg i.p.; male C57BL/6J mice", "method": "as §1\nOn day 3, mice were tested in the same experimental apparatus and conditions as on day 1. […] During the first 10-minute session mice were placed in the same empty open field as day 1. Immediately after, mice were removed from the field and given an injection of D-amphetamine sulphate (either 0.75 mg/kg or 1.5 mg/kg, i.p., Sigma-Aldrich, St. Louis, Mo., USA). They were then placed back in the same open field and allowed to explore for an additional 75 minutes. Amphetamine was dissolved in physiological saline and injected in a volume of 10 ml/kg.\nStatistical analysis. Results were expressed as mean±standard error of the mean (S.E.M.) throughout. Student T-test, Two- or Three-Way analysis of variance (ANOVA) was used. Post-hoc analyses for individual group comparisons employed Newman-Keuls analyses."}, "ErbB4 mRNA": {"tested_on": "ErbB4 mRNA", "test": "ErbB4 mRNA expression in hippocampus of rats treated chronically with haloperidol", "format": "in vivo, rat", "settings": "haloperidol 0.08 or 0.6 mg/kg/day i.p. once daily for 28 days", "method": "(§2) To explore this hypothesis, rats treated chronically with haloperidol, a standard antipsychotic drug, were tested for PIK3CD expression in the brain. Male Sprague-Dawley rats (weight 250 g) were on a 12-h light/dark cycle (lights on/off 0600 hours/1800 hours) in a temperature-controlled environment and with access to food and water. Rats were randomly assigned to drug treatment groups (8 per dose) and administered intraperitoneal injections of haloperidol (0.08 or 0.6 mg/kg/day) or vehicle (0.02% lactic acid) once daily for 28 days. Haloperidol (20 mg/ml) was prepared in 1% lactic acid, diluted with water, and neutralized with 1M NaOH to obtain pH 5.3. Rats were euthanized 7 h after the last injection. Brains were dissected and frozen at −80° C. PIK3CD, PIK3R3, ErbB4, and ErbB3 mRNA expression was determined in rat hippocampus using methods described above. Association of mRNA expression with haloperidol treatment was analyzed by ANOVA."}, "PIK3CD mRNA": {"tested_on": "PIK3CD mRNA", "test": "PIK3CD mRNA expression in hippocampus of rats treated chronically with haloperidol", "format": "in vivo, rat", "settings": "haloperidol 0.08 or 0.6 mg/kg/day i.p. once daily for 28 days, compared to untreated rats; F(2,22)=9.45, p=0.001", "method": "as §2"}, "PIK3R3 mRNA": {"tested_on": "PIK3R3 mRNA", "test": "PIK3R3 mRNA expression in hippocampus of rats treated chronically with haloperidol", "format": "in vivo, rat", "settings": "haloperidol 0.08 or 0.6 mg/kg/day i.p. once daily for 28 days", "method": "as §2"}, "ErbB3 mRNA": {"tested_on": "ErbB3 mRNA", "test": "ErbB3 mRNA expression in hippocampus of rats treated chronically with haloperidol", "format": "in vivo, rat", "settings": "haloperidol 0.08 or 0.6 mg/kg/day i.p. once daily for 28 days", "method": "as §2"}}, "note": "Entries after “also recorded” stand apart in the source; their conditions may differ."}
{"smiles": "Cc1ccccc1-n1c(Cn2cnc3c(N)ncnc32)nc2cccc(C)c2c1=O", "note": "[IC87114]", "values": [{"measurement": "LCL migration in response to NRG-1 stimulation", "setting": "[1]", "value": "Rescues a Cellular Phenotype Related to Schizophrenia; also recorded: significantly improve LCL migration"}, {"measurement": "amphetamine-induced stereotypy", "setting": "[2]", "value": "dramatically reduces amphetamine-induced stereotypy; also recorded: diminished"}, {"measurement": "baseline locomotor activity (distance traveled during 75 minutes)", "setting": "C57BL/6J mice [3]", "value": "no effect on baseline locomotor activity; also recorded: without affecting baseline behavior; also recorded: did not show any drug-treatment effect"}, {"measurement": "logBB (log(Cbrain/Cblood))", "setting": "[4]; calculated from partitioning data", "value": "> 0.3"}, {"measurement": "Kp", "setting": "[4]; not told, calculated from log D (octanol-buffer, pH 7.4) and N(CH2) (aqueous two-phase partitioning), read-out: Cbrain/Cblood", "value": "> 2"}, {"measurement": "amphetamine-induced hyperlocomotion (distance traveled during 75 minutes)", "setting": "C57BL/6J mice [5]", "value": "reduces amphetamine-induced hyperlocomotion; also recorded: reduces amphetamine induced locomotor abnormalities; also recorded: blocked the amphetamine-induced increase in locomotor activity"}]}
{"smiles": "O=C(CCCN1CCC(O)(c2ccc(Cl)cc2)CC1)c1ccc(F)cc1", "note": "[haloperidol]", "values": [{"measurement": "ErbB4 mRNA expression in rat hippocampus", "setting": "ErbB4 mRNA", "value": "did not affect"}, {"measurement": "expression of PIK3CD mRNA in rat hippocampus", "setting": "PIK3CD mRNA", "value": "decreases expression of PIK3CD mRNA"}, {"measurement": "PIK3R3 mRNA expression in rat hippocampus", "setting": "PIK3R3 mRNA", "value": "did not affect"}, {"measurement": "ErbB3 mRNA expression in rat hippocampus", "setting": "ErbB3 mRNA", "value": "did not affect"}]}
